According to the supplement of paper PMC10627819:

Assays:
[1] = tested on: B. subtilis 168; test: fitness (endpoint OD595 vs no drug) (fraction); higher = more growth
Method in brief: (§1)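 Volumes were 30 µl per well, or 55 µl for S. pneumoniae, in 384-well plates inoculated at OD595 0.01. Media were TSB, LB Lennox or CY at 37 °C, and OD595 was read every 30 min for 14 h with first-reading background subtraction. Fitness is the ratio of optical density at stationary-phase entry to the robust mean of no-drug controls. That ratio is capped at 1.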

[2] = tested on: S. pneumoniae D39V; test: as above
Method in brief: as §1

[3] = tested on: B. subtilis 168; test: Bliss interaction score (quartile over a dose matrix) (fitness difference); higher = more antagonism (negative = synergy)
Method in brief: (§2)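 Growth was read as OD595 when cultures entered stationary phase, and each value was divided by the plate's robust no-drug mean and capped at 1. This normalised ratio is the fitness value, and fitness for each single drug came from the combination data. The Bliss score subtracts the expected fitness, taken as the product, from the observed fitness and is given as quartiles across technical, biological and donor/recipient replicates.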

[4] = tested on: S. aureus DSM 20231; test: as above
Method in brief: as §2

[5] = tested on: S. aureus Newman; test: as above
Method in brief: as §2

[6] = tested on: S. pneumoniae D39V; test: as above
Method in brief: as §2
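For Bliss interaction score (quartile over a dose matrix) in this document: first quartile when negative (synergy) and third quartile when positive (antagonism).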

CCC[C@@H]1C[C@@H](C(=O)N[C@@H]([C@H]2O[C@H](SC)[C@H](O)[C@@H](O)[C@H]2O)[C@H](C)Cl)N(C)C1 [Clindamycin] + C[C@H]1c2cccc(O)c2C(=O)C2=C(O)[C@]3(O)C(=O)C(C(N)=O)=C(O)[C@@H](N(C)C)[C@@H]3[C@@H](O)[C@@H]21 [Doxycycline]
fitness, one replicate
Details | partner 0.003875 µg/mL | partner 0.00775 µg/mL | partner 0.02 µg/mL | partner 0.031 µg/mL | partner 0.04 µg/mL | partner 0.062 µg/mL | partner 0.08 µg/mL
[1], first compound 0.0039 µg/mL | – | – | 0.97 | – | 0.891 | – | 0.677
[1], first compound 0.0078 µg/mL | – | – | 0.831 | – | 0.781 | – | 0.515
[1], first compound 0.0156 µg/mL | – | – | 0.824 | – | 0.743 | – | 0.235
[2], first compound 0.015 µg/mL | 0.934 | 0.931 | – | 0.803 | – | 0.567 | –
[2], first compound 0.03 µg/mL | 0.778 | 0.777 | – | 0.588 | – | 0.359 | –
[2], first compound 0.06 µg/mL | 0.714 | 0.743 | – | 0.405 | – | 0.163 | –

Details | fitness
[1], first compound 0.0625 µg/mL, partner 0.04 µg/mL | 0.406
[1], first compound 0.0625 µg/mL, partner 0.08 µg/mL | 0.0499
[1], first compound 0.125 µg/mL, partner 0.02 µg/mL | 0.389
[1], first compound 0.125 µg/mL, partner 0.04 µg/mL | 0.164
[1], first compound 0.125 µg/mL, partner 0.08 µg/mL | 0.0428
[1], first compound 0.25 µg/mL, partner 0.02 µg/mL | 0.293
[1], first compound 0.25 µg/mL, partner 0.04 µg/mL | 0.11
[1], first compound 0.25 µg/mL, partner 0.08 µg/mL | 0.0404
[2], first compound 0.0125 µg/mL, partner 0.0155 µg/mL | 0.451
[2], first compound 0.0125 µg/mL, partner 0.031 µg/mL | 0.35
[2], first compound 0.0125 µg/mL, partner 0.062 µg/mL | 0.114
[2], first compound 0.015 µg/mL, partner 0.0155 µg/mL | 0.876
[2], first compound 0.025 µg/mL, partner 0.0155 µg/mL | 0.28
[2], first compound 0.025 µg/mL, partner 0.031 µg/mL | 0.245
[2], first compound 0.025 µg/mL, partner 0.062 µg/mL | 0.078
[2], first compound 0.03 µg/mL, partner 0.0155 µg/mL | 0.745
[2], first compound 0.05 µg/mL, partner 0.0155 µg/mL | 0.0637
[2], first compound 0.05 µg/mL, partner 0.031 µg/mL | 0.0376
[2], first compound 0.05 µg/mL, partner 0.062 µg/mL | 0.073
[2], first compound 0.06 µg/mL, partner 0.0155 µg/mL | 0.577

Details | Bliss interaction score
[3] | -0.184
[4] | -0.0562
[5] | -0.135
[6] | -0.151

O=C(O[C@@H]1Cc2c(O)cc(O)cc2O[C@@H]1c1cc(O)c(O)c(O)c1)c1cc(O)c(O)c(O)c1 [EGCG] + CN(C)C(=O)C(CCN1CCC(O)(c2ccc(Cl)cc2)CC1)(c1ccccc1)c1ccccc1 [Loperamide]
fitness
Details | first compound 6.25 µg/mL | first compound 12.5 µg/mL | first compound 25 µg/mL | first compound 50 µg/mL
[1], partner 25 µg/mL | – | – | 0.0734 | –
[1], partner 50 µg/mL | – | 0.0521 | 0.0237 | –
[1], partner 100 µg/mL | 0.0302 | 0.0337 | 0.0599 | –
[2], partner 17.14 µg/mL | – | 0.91 | 0.921 | 0.965
[2], partner 20 µg/mL | – | 0.988 | ≥ 1 | 0.991
[2], partner 34.28 µg/mL | – | 0.895 | 0.982 | 0.992
[2], partner 40 µg/mL | – | 0.984 | ≥ 1 | ≥ 1

[2], partner 68.57 µg/mL, one replicate
Details | fitness
first compound 12.5 µg/mL | 0.491
first compound 25 µg/mL | 0.958
first compound 50 µg/mL | 0.891

Details | Bliss interaction score
[3] | -0.097
[4] | 0.183
[5] | -0.0758
[6] | 0.0701
